Source: PubChem BioAssay (NCI)
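Where inhibition never reached the appropriate level, the endpoint shown equals the highest concentration tested. Otherwise, values were interpolated linearly from a five-concentration, 48-hour dose response in 96-well plates. At the GI50, growth is halved. TGI: concentration producing complete growth inhibition.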

Key:
Assay in all cases: DTP human tumour cell line panel, 48 h
[1] = system: HCC-2998 colon
[2] = system: T-47D breast
[3] = system: NCI/ADR-RES ovarian
[4] = system: TK-10 renal
[5] = system: SN12C renal
[6] = system: UO-31 renal
[7] = system: EKVX NSCLC
[8] = system: HCT-15 colon
[9] = system: OVCAR-8 ovarian
[10] = system: A549 NSCLC
[11] = system: MDA-MB-435
[12] = system: ACHN renal
[13] = system: UACC-257 melanoma
[14] = system: SF-295 CNS
[15] = system: HS 578T breast
[16] = system: IGROV1 ovarian
[17] = system: SK-OV-3 ovarian
[18] = system: 786-0 renal
[19] = system: MALME-3M melanoma
[20] = system: OVCAR-3 ovarian
[21] = system: KM12 colon
[22] = system: SK-MEL-28 melanoma
[23] = system: NCI-H23 lung
[24] = system: M14 melanoma
[25] = system: A498 renal
[26] = system: SK-MEL-5 melanoma
[27] = system: DU-145 prostate
[28] = system: COLO 205 colon
[29] = system: HL-60(TB) leukemia
[30] = system: OVCAR-5 ovarian
[31] = system: PC-3 prostate
[32] = system: SF-268 CNS
[33] = system: HCT-116 colon
[34] = system: UACC-62 melanoma
[35] = system: RXF 393 renal
[36] = system: MDA-MB-231 breast
[37] = system: U251 CNS
[38] = system: HOP-92 NSCLC
[39] = system: NCI-H460 lung
[40] = system: NCI-H522 lung
[41] = system: MCF7 breast
[42] = system: SNB-75 CNS
[43] = system: SK-MEL-2 melanoma
[44] = system: SNB-19 CNS
[45] = system: SW-620 colon
[46] = system: SF-539 CNS
[47] = system: HT29 colon
[48] = system: BT-549 breast
[49] = system: SR leukemia
[50] = system: LOX IMVI melanoma
[51] = system: CCRF-CEM leukemia
[52] = system: OVCAR-4 ovarian
[53] = system: K-562 leukemia
[54] = system: MOLT-4 leukemia
[55] = system: NCI-H226 lung
[56] = system: HOP-62 NSCLC
[57] = system: RPMI-8226 leukemia

SMILES: CCCS(=O)(=O)Nc1ccc(F)c(C(=O)c2c[nH]c3ncc(-c4ccc(OCCCC5CCCCN5)nc4)cc23)c1F (centres undefined)
- GI50 [1]: > 100000 nM
- TGI [1]: > 100000 nM
- GI50 [2]: 1280 nM
- TGI [2]: 10700 nM
- GI50 [3]: > 100000 nM
- TGI [3]: > 100000 nM
- GI50 [4]: 7790 nM
- TGI [4]: > 100000 nM
- GI50 [5]: 2140 nM
- TGI [5]: > 100000 nM
- GI50 [6]: > 100000 nM
- TGI [6]: > 100000 nM
- GI50 [7]: > 100000 nM
- TGI [7]: > 100000 nM
- GI50 [8]: > 100000 nM
- TGI [8]: > 100000 nM
- GI50 [9]: 9630 nM
- TGI [9]: > 100000 nM
- GI50 [10]: > 100000 nM
- TGI [10]: > 100000 nM
- GI50 [11]: 30 nM
- TGI [11]: > 100000 nM
- GI50 [12]: 16900 nM
- TGI [12]: > 100000 nM
- GI50 [13]: 13.6 nM
- TGI [13]: 96.7 nM
- GI50 [14]: 3970 nM
- TGI [14]: > 100000 nM
- GI50 [15]: 493 nM
- TGI [15]: 2820 nM
- GI50 [16]: 865 nM
- TGI [16]: > 100000 nM
- GI50 [17]: 875 nM
- TGI [17]: > 100000 nM

SMILES: Cc1ccc(NCCNCC(C)(C)O)c2c(=O)c3ccc(Cl)cc3sc12
- GI50 [1]: 1380 nM
- TGI [1]: 2910 nM
- GI50 [18]: 1570 nM
- TGI [18]: 3040 nM
- GI50 [19]: 1590 nM
- TGI [19]: 3230 nM
- GI50 [3]: 1520 nM
- TGI [3]: 3020 nM
- GI50 [20]: 1660 nM
- TGI [20]: 3130 nM
- GI50 [21]: 1630 nM
- TGI [21]: 3130 nM
- GI50 [22]: 1810 nM
- TGI [22]: 3380 nM
- GI50 [23]: 1530 nM
- TGI [23]: 3030 nM
- GI50 [24]: 1660 nM
- TGI [24]: 3260 nM
- GI50 [4]: 2170 nM
- TGI [4]: 3890 nM
- GI50 [25]: 1630 nM
- TGI [25]: 3090 nM
- GI50 [5]: 1470 nM
- TGI [5]: 3010 nM
- GI50 [26]: 1580 nM
- TGI [26]: 2950 nM
- GI50 [6]: 1030 nM
- TGI [6]: 2240 nM
- GI50 [27]: 1670 nM
- TGI [27]: 3080 nM
- GI50 [7]: 1380 nM
- TGI [7]: 2870 nM
- GI50 [28]: 1340 nM
- TGI [28]: 2920 nM
- GI50 [29]: 1450 nM
- TGI [29]: 3170 nM
- GI50 [30]: 1470 nM
- TGI [30]: 2950 nM
- GI50 [8]: 1050 nM
- TGI [8]: 2320 nM
- GI50 [9]: 1770 nM
- TGI [9]: 3320 nM
- GI50 [31]: 1350 nM
- TGI [31]: 2710 nM
- GI50 [32]: 1520 nM
- TGI [32]: 3220 nM
- GI50 [10]: 1640 nM
- TGI [10]: 3090 nM
- GI50 [33]: 1300 nM
- TGI [33]: 2660 nM
- GI50 [34]: 1810 nM
- TGI [34]: 3420 nM
- GI50 [35]: 1260 nM
- TGI [35]: 2610 nM
- GI50 [36]: 1160 nM
- TGI [36]: 2570 nM
- GI50 [11]: 1740 nM
- TGI [11]: 3270 nM
- GI50 [37]: 1670 nM
- TGI [37]: 3060 nM
- GI50 [38]: 455 nM
- TGI [38]: 1920 nM
- GI50 [39]: 1220 nM
- TGI [39]: 2600 nM
- GI50 [40]: 1820 nM
- TGI [40]: 3590 nM
- GI50 [41]: 1440 nM
- TGI [41]: 2970 nM
- GI50 [13]: 1930 nM
- TGI [13]: 3440 nM
- GI50 [42]: 1340 nM
- TGI [42]: 2850 nM
- GI50 [14]: 1660 nM
- TGI [14]: 3110 nM
- GI50 [15]: 1590 nM
- TGI [15]: 3840 nM
- GI50 [43]: 1590 nM
- TGI [43]: 3280 nM
- GI50 [16]: 1350 nM
- TGI [16]: 2960 nM
- GI50 [44]: 1670 nM
- TGI [44]: 3270 nM
- GI50 [45]: 1500 nM
- TGI [45]: 2960 nM
- GI50 [46]: 1440 nM
- TGI [46]: 2820 nM
- GI50 [17]: 1460 nM
- TGI [17]: 2980 nM
- GI50 [47]: 1610 nM
- TGI [47]: 3100 nM

SMILES: CC[C@H](C)[C@H](NC(=O)[C@H]1CCCCN1C)C(=O)N(C)[C@H](CCc1nc(C(=O)N[C@@H](Cc2ccccc2)C[C@H](C)C(=O)O)cs1)C(C)C
- GI50 [1]: 632 nM
- TGI [1]: > 25000 nM
- GI50 [18]: 476 nM
- TGI [18]: > 25000 nM
- GI50 [48]: 126 nM
- TGI [48]: 6940 nM
- GI50 [3]: > 25000 nM
- TGI [3]: > 25000 nM
- GI50 [20]: 37.1 nM
- TGI [20]: 181 nM
- GI50 [21]: 115 nM
- TGI [21]: > 25000 nM
- GI50 [22]: > 25000 nM
- TGI [22]: > 25000 nM
- GI50 [49]: 16.6 nM
- TGI [49]: > 25000 nM
- GI50 [23]: 565 nM
- TGI [23]: > 25000 nM
- GI50 [4]: > 14900 nM
- TGI [4]: > 25000 nM
- GI50 [25]: 272 nM
- TGI [25]: > 25000 nM
- GI50 [5]: 445 nM
- TGI [5]: > 25000 nM
- GI50 [26]: 87.5 nM
- TGI [26]: 3240 nM
- GI50 [6]: > 14100 nM
- TGI [6]: > 25000 nM
- GI50 [27]: 389 nM
- TGI [27]: > 25000 nM
- GI50 [50]: 123 nM
- TGI [50]: > 25000 nM
- GI50 [7]: 920 nM
- TGI [7]: > 25000 nM
- GI50 [51]: 85.7 nM
- TGI [51]: > 25000 nM
- GI50 [28]: 144 nM
- TGI [28]: 1830 nM
- GI50 [29]: 55.3 nM
- TGI [29]: 174 nM
- GI50 [30]: 1820 nM
- TGI [30]: > 25000 nM
- GI50 [8]: 1340 nM
- TGI [8]: > 25000 nM
- GI50 [9]: 610 nM
- TGI [9]: > 25000 nM
- GI50 [52]: 1940 nM
- TGI [52]: > 25000 nM
- GI50 [53]: 58.5 nM
- TGI [53]: > 25000 nM
- GI50 [31]: 367 nM
- TGI [31]: > 25000 nM
- GI50 [32]: 184 nM
- TGI [32]: > 25000 nM
- GI50 [10]: 2980 nM
- TGI [10]: > 25000 nM
- GI50 [33]: 133 nM
- TGI [33]: > 25000 nM
- GI50 [34]: 86.1 nM
- TGI [34]: > 25000 nM
- GI50 [54]: 138 nM
- TGI [54]: > 25000 nM
- GI50 [36]: 596 nM
- TGI [36]: > 25000 nM
- GI50 [11]: 12 nM
- TGI [11]: 72.4 nM
- GI50 [37]: 127 nM
- TGI [37]: > 25000 nM
- GI50 [38]: 643 nM
- TGI [38]: > 25000 nM
- GI50 [39]: 164 nM
- TGI [39]: > 25000 nM
- GI50 [55]: 8830 nM
- TGI [55]: > 25000 nM
- GI50 [40]: 35.1 nM
- TGI [40]: 579 nM
- GI50 [12]: 1370 nM
- TGI [12]: > 25000 nM
- GI50 [56]: 208 nM
- TGI [56]: > 25000 nM
- GI50 [41]: 27.1 nM
- TGI [41]: > 25000 nM
- GI50 [13]: > 25000 nM
- TGI [13]: > 25000 nM
- GI50 [42]: 62.1 nM
- TGI [42]: > 25000 nM
- GI50 [14]: 143 nM
- GI50 [57]: 100 nM
- TGI [57]: > 25000 nM
- GI50 [15]: 123 nM
- TGI [15]: > 25000 nM
- GI50 [43]: 78.9 nM
- TGI [43]: > 25000 nM
- GI50 [16]: 223 nM
- TGI [16]: > 25000 nM
- GI50 [44]: 197 nM
- TGI [44]: > 25000 nM
- GI50 [45]: 124 nM
- TGI [45]: > 25000 nM
- GI50 [46]: 88.8 nM
- TGI [46]: 1140 nM
- GI50 [17]: 585 nM
- TGI [17]: > 25000 nM
- GI50 [47]: 123 nM
- TGI [47]: > 25000 nM
